Experimental findings from patent US20100317698A1, “Polysubstituted Pyridinylaminoalkylene- and Pyridinyloxyalkylene-Cyclopropanamine Compounds, a Process for Their Preparation and Pharmaceutical Compositions Containing Them” (LES LABORATOIRES SERVIER, priority 2006, published 2010) are described below.

Data set [1] has as its target T1, type α4β2 central nicotinic receptors (Rattus norvegicus, UniProt P09483+P12390).
T1 construct: from tissue; host or cells: rat brain membranes
Briefly: Displacement of binding of [3H]-cytisine to type α4β2 nicotinic receptors of rat brain. Conditions: rat brain membranes, read-out: Affinity (Ki, nM) for type α4β2 receptors. As to the method: This study, carried out according to the technique described in Molec. Pharmacol., 1990, 39; 9-12, is aimed at determining the affinity of compounds of the present invention for type […] central nicotinic receptors.
Membranes (250 μg/ml) of rat brain are incubated (2 hours, 20° C.) in the presence of a series of concentrations (0.01-10 μM) of each compound of the present invention (diluted starting from a 10 mM stock solution in DMSO) and [^3H]-cytisine (S.A.: 1184 GBq/mmol: 2 nM) in phosphate buffer (NaH2PO4 20 mM, pH 7.4); final volume: 250 μl. The non-specific binding is determined by incubating membranes in the presence of 10 μM of (−)nicotine. The affinity of the compounds of the present invention for type α4β2 central nicotinic receptors is characterised by determination of the Ki.

Data set [2] concerns cortical release of acetylcholine. Briefly: In vivo measurement of the release of acetylcholine by intra-cortical microdialysis in the conscious Wistar rat. The settings on record: 10 mg/kg IP, median prefrontal cortex. The procedure:
The systemic administration of nicotine and nicotinic agonists causes an increase, in vivo, of acetylcholine in various regions of the brain (Neurochem. Res., 1996, 21, 1181-1186; Eur. J. Pharmacol., 1998, 351, 181-188; Br. J. Pharmacol., 1999, 127, 1486-1494). A microdialysis probe is implanted in the median prefrontal cortex of male Wistar rats. Six or seven days after they have been implanted, the probes are perfused with Ringer's solution (NaCl 147 mM, KCl 2.7 mM, CaCl2 1.2 mM, MgCl2 1 mM, neostigmine 20 nM) at a flow rate of 1 μl/min, the animal being free to move. After 2 hours in the animal quarters, the product under test is administered by the intraperitoneal route. A group of control animals receives the solvent used for the product. The dialysates (30 μl) are then collected every 30 minutes for 4 hours in order to measure the extra-synaptic cortical concentrations of acetylcholine by means of HPLC with amperometric detection. The results are expressed in pg of acetylcholine/dialysate, and inter-group comparisons are carried out by means of variance analysis, using 2 factors (treatment×time), with measurements being repeated over time.

The next data set relates to NMRI mouse. Briefly: Abdominal contractions induced by phenyl-p-benzoquinone (PBQ) in the NMRI mouse. Conditions: 10 mg/kg IP. Format: in vivo. As to the method: Intraperitoneal administration of an alcoholic solution of PBQ causes abdominal cramps in the mouse (Proc. Soc. Exp. Biol., 1957, 95, 729-731). The cramps are characterised by repeated contractions of the abdominal musculature, accompanied by extension of the hind limbs. Most analgesics antagonise these abdominal cramps (Brit. J. Pharmacol. Chem., 1968, 32, 295-310). At t=0 min., the animals are weighed and the compound being studied is administered by the IP route. A group of control animals is given the solvent used for the compound. At t=30 min., an alcoholic solution of PBQ (0.2%) is administered by the IP route in a volume of 0.25 ml/mouse. Immediately after administration of the PBQ, the animals are placed in cylinders of plexiglass (L=19.5 cm; I.D.=5 cm). From t=35 min. to t=45 min., the animals' reaction is observed and the experimenter notes the total number of abdominal cramps per animal. The results are expressed as the percentage inhibition of the number of abdominal cramps measured in the control animals at the active dose of the compound studied.

T1 sequence (P09483 31-630): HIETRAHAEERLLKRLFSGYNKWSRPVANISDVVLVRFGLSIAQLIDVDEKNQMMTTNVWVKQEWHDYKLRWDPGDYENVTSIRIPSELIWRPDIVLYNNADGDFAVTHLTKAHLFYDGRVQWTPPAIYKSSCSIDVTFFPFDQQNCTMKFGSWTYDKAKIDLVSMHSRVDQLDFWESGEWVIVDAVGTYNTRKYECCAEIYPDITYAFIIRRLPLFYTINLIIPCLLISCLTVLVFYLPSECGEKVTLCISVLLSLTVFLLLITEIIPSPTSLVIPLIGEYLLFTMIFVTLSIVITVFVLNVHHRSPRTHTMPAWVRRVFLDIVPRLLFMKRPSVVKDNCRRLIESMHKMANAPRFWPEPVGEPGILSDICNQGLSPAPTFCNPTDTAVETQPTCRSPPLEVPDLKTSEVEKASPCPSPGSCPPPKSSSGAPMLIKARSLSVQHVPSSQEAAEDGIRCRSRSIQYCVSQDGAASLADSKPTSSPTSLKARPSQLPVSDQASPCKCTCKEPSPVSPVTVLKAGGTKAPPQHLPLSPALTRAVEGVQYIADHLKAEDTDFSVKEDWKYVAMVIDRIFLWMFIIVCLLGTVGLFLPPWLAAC
T1 sequence (P12390 25-500): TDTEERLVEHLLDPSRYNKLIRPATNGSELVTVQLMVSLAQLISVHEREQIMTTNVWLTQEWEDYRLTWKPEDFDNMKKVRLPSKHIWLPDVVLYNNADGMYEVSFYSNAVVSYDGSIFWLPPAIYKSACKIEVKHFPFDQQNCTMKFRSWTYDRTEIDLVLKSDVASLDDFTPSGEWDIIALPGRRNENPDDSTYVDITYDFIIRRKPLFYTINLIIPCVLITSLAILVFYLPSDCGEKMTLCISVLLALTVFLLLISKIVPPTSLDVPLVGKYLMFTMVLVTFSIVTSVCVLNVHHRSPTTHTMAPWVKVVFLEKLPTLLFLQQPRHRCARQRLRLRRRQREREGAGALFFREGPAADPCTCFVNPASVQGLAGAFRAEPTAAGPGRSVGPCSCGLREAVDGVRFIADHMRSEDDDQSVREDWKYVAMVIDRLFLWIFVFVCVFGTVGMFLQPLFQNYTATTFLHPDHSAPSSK

As for `CNC1(COc2cncc(-c3ccc(C)cc3)c2)CC1.Cl.Cl` [Example 2, Methyl[1-({[5-(4-methylphenyl)pyridin-3-yl]oxy}methyl)cyclopropyl]amine dihydrochloride], the melting point – broadly, the temperature of the solid-liquid transition – was in the range of 218 to 223 °C. The inhibition constant Ki (commonly the dissociation constant of the complex between target and ligand, obtained from inhibition or displacement) in data set [1] is 8.5 nM.
As for `CNC1(COc2cnc(Cl)c(-c3ccc(C#N)cc3)c2)CC1.Cl` [Example 18, 4-(2-Chloro-5-{[1-(methylamino)cyclopropyl]methoxy}pyridin-3-yl)benzonitrile hydrochloride], the melting point is 215 to 220 °C. Besides, the “increase of the release of acetylcholine” value in data set [2] is recorded as “+104%”.
In turn, `CNC1(COc2cnc(C)c(-c3ccncc3)c2)CC1.Cl.Cl.Cl` [Example 81, Methyl(1-{[(2-methyl-3,4′-bipyridin-5-yl)oxy]methyl}cyclopropyl)amine trihydrochloride] registered a melting point of 130 to 138 °C. In addition, the “inhibition of the number of abdominal cramps versus control animals” value in the data set on NMRI mouse is listed as −90%.
For `CNC1(CNc2cnc(Cl)c(-c3ccncc3)c2)CC1.Cl.Cl` [Example 106, 2-Chloro-N-{[1-(methylamino)cyclopropyl]methyl}-3,4′-bipyridin-5-amine dihydrochloride], in that order: 100 to 110 °C and −87%.
Consider “[1-({[5-(3-Methoxyphenyl)pyridin-3-yl]oxy}methyl)cyclopropyl]methylamine dihydrochloride [Example 1]”, for which the inhibitory constant (Ki) in data set [1] turned out to be 7.9 nM. Moreover, the “increase of the release of acetylcholine” value in data set [2] is given as “+72%”.
